The results in this text go back to PubChem BioAssay AID179 (DTP/NCI, 2004).

The assay has as its system CEM cells HIV-1 protection, formazan growth assay. Description: NCI AIDS Antiviral Assay. The settings on record: for IC50: measured here: growth of uninfected CEM cells. The procedure, abridged: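 Protection of CEM cells against HIV-1 was scored from cell growth (soluble formazan) across five concentrations, with parallel uninfected cells. Lack of protection may reflect toxicity.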

Several values for one entry are separate records, joined by “and”; a condition that tells them apart may be missing. Identical values can stand only once. Activity calls are given as the source filed them.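 How the source made its calls: active means compounds giving half or more protection of infected cells from virus-caused growth loss, again on retest; inactive means the rest.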 Where a SMILES comes first, the peptide text is derived from it. The star is where a group is joined. Boc = CC(C)(C)OC(=O)*

The term EC50 denotes the concentration giving half of the maximal effect. What is called IC50 is the point on the concentration scale where inhibition reaches its midpoint. For the compound `O=c1c2ccccc2c2nccn2c2ccccc12`, the EC50 was 182 µM and the IC50 was above 200 µM. With `CCCn1c2ccccc2c2ccc3c(c21)C(=O)C=CC3=O`, the EC50 is above 200 µM and the IC50 is 1.17 µM. For `O=C1CC2CC(=O)CC2(C2CC=CC2)C1` (stereo unspecified), in that order: above 245 µM and above 245 µM. The corresponding values for `C=C1c2nc3ccccc3n2C=C(c2ccccc2)N1c1ccc(C)cc1` are above 200 µM and 28.2 µM. For `O=C(Cc1ccccc1)N[C@@H]1COC(=O)[C@@H]2CCCN2C(=O)[C@@H]2CCCN2C1=O` (HELM PEPTIDE1{[O=C(Cc1ccccc1)[*:2]].[O=C([C@@H](CO[*:3])N[*:1])[*:2]].P.P}$PEPTIDE1,PEPTIDE1,2:R3-4:R2$$$V2.0), in that order: above 200 µM and above 200 µM. As for `O=C1/C(=C/c2ccccc2)CN(C(=O)OCc2ccccc2)C/C1=C\c1ccccc1`, the result was inactive. Take `Cc1cccc2c(=O)c3ccccc3oc12`: the EC50 is above 170 µM and the half-maximal inhibitory concentration (IC50) is above 170 µM. Consider `FC(F)(F)c1nc2c(ccc3[nH]c4c(-c5ccccc5)nccc4c32)[nH]1`, for which the EC50 is above 28.2 µM and the concentration for half-maximal inhibition (IC50) was above 28.2 µM.

On to `Cc1cc(N(CCC#N)CCC#N)ccc1/C(N=Nc1ccc(C(=O)O)cc1)=N\NC(=O)c1cc(Cl)ccc1O`, for which the EC50 was above 200 µM and the IC50 is 112 µM. The corresponding values for `COc1nc(NC2OCC(O)C(O)C2O)c(NC2OCC(O)C(O)C2O)c(=O)n1C` (stereo unspecified) are above 575 µM and above 575 µM.

`O=C1CCCC2CCCCN12` (stereo unspecified): the result was inactive.

On to `c1csc(-c2cc(-c3ccsc3)c(-c3cccs3)s2)c1`, for which the EC50 is above 200 µM and the half-maximal inhibitory concentration (IC50) is 107 µM. For the compound `O=C(O)Cc1cc(=O)oc2cc(O)ccc12`, the EC50 was above 1120 µM and the half-maximal inhibitory concentration (IC50) is above 1120 µM.

For `CCOP(=O)(OCC)/C(C#N)=C/c1cn(C)cn1`, the EC50 was above 200 µM and the concentration for half-maximal inhibition (IC50) is above 200 µM. On to `O=C1/C(=C/c2cccc(F)c2)CCc2ccccc21`, for which the EC50 was above 14.8 µM and the IC50 was above 14.8 µM.

Consider `CC1=C2CCCCCC2(O)OC1=O` (stereo unspecified), for which the EC50 was above 646 µM and the half-inhibitory concentration (IC50) is above 646 µM. In the case of `NC(=O)c1c(NC=O)ncn1C1OCC(O)C(O)C1O` (stereo unspecified), the EC50 was above 200 µM and the IC50 is above 200 µM. For `c1ccc(C[P+](c2ccccc2)(c2ccccc2)c2ccccc2)cc1`, the EC50 is above 200 µM and the IC50 turned out to be 3.89 µM. For `CCOP(=O)(OCC)/C(C#N)=C\c1ccccc1`, in that order: above 355 µM and above 355 µM.

`CNc1ccc(S(=O)Nc2ccccc2)cc1` (stereo unspecified): the EC50 is above 200 µM and the half-inhibitory concentration (IC50) is 93.3 µM. For `CC[C@@]12CCC(=O)N3CCC4(C(=C(C(=O)OC)C1)Nc1ccccc14)[C@H]32` (stereo partly specified), in that order: above 269 µM and 15.5 µM. Turning to `C=C(Cc1ccc(O)cc1)C(=C)Cc1ccc(O)cc1`, the EC50 is above 200 µM and the IC50 stood at 69.2 µM. For `COc1ccc(OC)c(NC(=O)C(=O)C(C(C)=O)c2nc3ccc(Cl)cc3[nH]c2=O)c1` (stereo unspecified), in that order: above 81.3 µM and above 81.3 µM. On to `COc1cc(/C=C2\CCC(C)C3=C(c4cc(OC)c(OC)c(OC)c4)C(C#N)=C(N)OC32)cc(OC)c1OC` (stereo unspecified), for which the outcome was inactive. As to `COC(=O)C1=C(C(=O)OC)N(C(C)C)[C@H]2C(C(=O)OC)=C(C(=O)OC)N(C(C)C)[C@@H]12`, the EC50 is above 2.45 µM and the IC50 was above 2.45 µM. `Cc1cccc(-n2c(=S)[nH]c3c(sc(=O)n3-c3ccccc3C)c2=O)c1`: the EC50 is above 2 µM and the IC50 was above 2 µM. Turning to `Nc1c(O)cc(N=C2C(=O)C=CC=C2C(=O)O)c(O)c1C(=O)O`, the outcome was inactive. Turning to `CCOC(=O)c1c[nH]c2cc3c(cc2c1=O)CCS3`, the EC50 is above 200 µM and the IC50 amounted to 115 µM. The corresponding values for `O=C(Nn1cc(F)c(=O)[nH]c1=O)C12CC3CC(CC(C3)C1)C2` are above 200 µM and 8.91 µM. On to `C1=C(c2ccccc2)O[C@H](COCc2ccccc2)C(OCc2ccccc2)[C@@H]1OCc1ccccc1` (stereo partly specified), for which the result was inactive. Turning to `C1CN(c2nnc(N3CCC3)nn2)C1`, the outcome was inactive. Take `O=[N+]([O-])c1ccc(/C=[N+](\[O-])CCO)o1`: the EC50 is above 200 µM and the IC50 was determined as 30.9 µM. For `CC[C@@]1(O)C[C@H](OC2CC(N(C)C)C(OC3CC(O)C(OC4CCC(=O)C(C)O4)C(C)O3)C(C)O2)c2c(cc3c(c2O)C(=O)c2c(O)ccc(O)c2C3=O)[C@H]1C(=O)OC` (stereo partly specified), the EC50 is above 6.31 µM; the half-maximal inhibitory concentration (IC50) is 0.0055 µM and 0.0158 µM.

Turning to `COc1cc2c(c(OC)c1)C1(CC(CC#N)C2)SCCS1` (stereo unspecified), the outcome was inactive.

As for `Cn1c(-c2ccccc2)cc(-c2ccc3c(c2)OCO3)c1-c1cccs1`, the EC50 is above 200 µM and the IC50 is above 200 µM. For the compound `Clc1ccccc1C(c1ccccc1)(c1ccccc1)n1ccnc1`, the EC50 is above 200 µM and the IC50 stood at 21.4 µM. As for `CC(C)(C)OC(=O)N(CCCN)CCCCN(CCCN)C(=O)OC(C)(C)C`, the result was inactive. In the case of `CCN(CC)c1ccc2c(-c3ccccc3C(=O)O)c3ccc(=[N+](CC)CC)cc-3oc2c1`, the concentration giving a half-maximal response (EC50) was above 100 µM; the 50% inhibitory concentration (IC50) was 9.12 µM and 13.5 µM. For the compound `CCOC(=O)/C=C/c1ccccc1Br`, the EC50 was above 38.9 µM and the 50% inhibitory concentration (IC50) was above 38.9 µM. For the compound `O=C(/C=C/c1ccco1)N1CCN(Cc2ccccc2)CC1`, the EC50 is above 282 µM and the IC50 turned out to be 263 µM. For `CCCCC1N=CNc2c1ccc1c2[nH]c2ccccc21` (stereo unspecified), the EC50 is above 25.7 µM and the IC50 amounted to 6.17 µM.

For the compound `CC(C)(c1ccccc1)c1ccc(OC#N)cc1`, the EC50 was above 57.5 µM and the half-inhibitory concentration (IC50) was above 57.5 µM. Regarding `CC(C)(C)OC(=O)CC(NC(=O)OC(C)(C)C)C(=O)N[C@@H]1CCCC[C@H]1C(=O)OCc1ccccc1` (stereo partly specified), the EC50 was above 200 µM and the 50% inhibitory concentration (IC50) amounted to 10.5 µM.

Consider `NC(=O)N1c2ccccc2C=Cc2ccccc21`, for which the EC50 was above 200 µM and the half-maximal inhibitory concentration (IC50) is above 200 µM. With `COc1ccc2c(c1)CCc1[nH]c3ccccc3c1CCCC2`, the EC50 was above 61.7 µM and the IC50 was 57.5 µM. The corresponding values for `NCCCCC(=O)c1cccnc1` are above 1000 µM and 501 µM. Turning to `O=C(O/N=C1/CCC/C1=C\c1ccccc1)c1ccc(Cl)cc1`, the outcome was inactive. Take `COc1cc(O)cc(O)c1C(=O)CC(Cl)(Cl)Cl`: the EC50 is above 316 µM and the IC50 amounted to 170 µM. For `COC1(OC)N=C(N)C2(C#N)C(c3ccccc3)NC3=C(CCC3)C12C#N` (stereo unspecified), in that order: above 200 µM and above 200 µM. Take `COC1/C=C/OC2(C)Oc3c(C)c(O)c4c(O)c(c(/C=N/Nc5ccc([N+](=O)[O-])cc5[N+](=O)[O-])c(O)c4c3C2=O)NC(=O)C(C)=C/C=C/C(C)C(O)C(C)C(O)C(C)C(OC(C)=O)C1C` (stereo unspecified): the EC50 was above 200 µM and the IC50 came to 7.08 µM. The corresponding values for `O=[N+]([O-])c1ccc(C2N3CCCCC3[C@H]3CCCCN23)cc1` (stereo partly specified) are above 24 µM and above 24 µM. `CCC1=CC2CN3CCc4c([nH]c5ccccc45)[C@@](C(=O)OC)(C2)[C@@H]13`: the result was inactive. For the compound `O=c1[nH]c(=O)n(C2OC(CO)C(O)C2O)c2nccnc12` (stereo unspecified), the EC50 was above 200 µM and the concentration for half-maximal inhibition (IC50) was above 200 µM.

With `CC(=O)NNc1nc(C)c(C(=O)/C=C/C=C/c2ccccc2)s1`, the EC50 was above 21.9 µM and the IC50 is above 21.9 µM.

On to `O=C1CC2(C(=O)O1)C1C(=O)OC(=O)C1C1C=CC=NN12` (stereo unspecified), for which the EC50 was above 200 µM and the IC50 was above 200 µM. With `COc1ccc(CCCCl)c(C2=NCCc3ccccc32)c1`, the EC50 is above 200 µM and the 50% inhibitory concentration (IC50) worked out at 7.08 µM. The corresponding values for `CCN1CCC(O)(/C=C/c2ccc(C)cc2C)C(C(=O)/C=C/c2ccc(C)cc2C)C1` (stereo unspecified) are above 200 µM and 3.24 µM.

For the compound `N[C@@H]1C(CO)NC[C@@H]1CO` (stereo partly specified), the EC50 is above 200 µM and the 50% inhibitory concentration (IC50) was above 200 µM. With `CN(C)c1ccc(/C=C(\C#N)c2ccc([N+](=O)[O-])cc2)c(Cl)c1`, the EC50 is above 100 µM and the IC50 amounted to 75.9 µM. For `CN[C@@H]1[C@H](O)[C@H](NC)[C@H]2O[C@@]3(O)C(=O)C[C@@H](C)O[C@H]3O[C@@H]2[C@H]1O`, in that order: above 200 µM and above 200 µM.

With `CCCCCCCCCCCC(=O)OCC1OC(OC)C(NC(=O)N(CCCl)N=O)C(O)C1O` (stereo unspecified), the EC50 was above 26.3 µM and the half-inhibitory concentration (IC50) turned out to be 22.4 µM. Consider `CCOC(=O)Nc1sc2c(c1C#N)CCCC2`, for which the half-maximal effective concentration (EC50) was 41.7 µM and the IC50 was 105 µM. `COC(=O)CNC(=O)C(Cc1ccccc1)NC(=O)C(Cc1ccccc1)NC(=O)OC(C)(C)C` (stereo not drawn) (Boc-Phe-Phe-Gly-OMe; configuration not given here): the EC50 is above 200 µM and the IC50 was 24 µM. The corresponding values for `CCN(CCN(CC)C(=O)Nc1ccccc1)C(=O)Nc1ccccc1` are above 200 µM and above 200 µM. Consider `Cc1ccc(NNc2cc(=O)[nH]c(=O)[nH]2)cc1Cl`, for which the EC50 was above 200 µM and the concentration for half-maximal inhibition (IC50) turned out to be 4.68 µM. For `Cc1cc(C2(c3cc(C)c(O)c(Br)c3)OS(=O)(=O)c3ccccc32)cc(Br)c1O`, in that order: above 200 µM and above 200 µM. The corresponding values for `NC(CSS(=O)(=O)O)=NC1CC1` are above 200 µM and above 200 µM.

Consider `Clc1cnc2cccc3c2c1C=CN3`, for which the EC50 was above 129 µM and the IC50 stood at 52.5 µM. As for `O=C1CC(=O)NC(=NN2C(=O)/C(=C/C(=O)c3ccco3)N=C2c2ccccc2)N1`, the EC50 was above 200 µM and the IC50 was 32.4 µM. Consider `NCCNC(=O)CCC(CN(CC(=O)O)CC(=O)O)N(CC(=O)O)CC(=O)O` (stereo unspecified), for which the EC50 is above 63.1 µM and the IC50 was above 63.1 µM. Turning to `COC(=O)C(=O)C(C(=O)C(=O)Nc1cc(C)ccc1C)c1nc2ccc(C(=O)c3ccccc3)cc2[nH]c1=O` (stereo unspecified), the outcome was inactive.
